Measurements: ChEMBL document CHEMBL4414674, “Paraconiothins A-J: Sesquiterpenoids from the Endophytic Fungus Paraconiothyrium brasiliense ECN258” (J Nat Prod, 2019)
Activity calls are given as the source filed them. The rule behind the calls is not given here.

How the values were obtained:
Type in all cases: cell-based
[1] = target: T1, Peroxisome proliferator-activated receptor delta (Homo sapiens) (UniProt Q03181); experiment: Inhibition of PPARdelta (unknown origin) transfected in human HEK293 cells co-expressing CMV-beta galactosidase assessed as effect on beta-galactosidase activity at 50 uM after 48 hrs by luciferase reporter gene assay
T1 sequence (whole entry): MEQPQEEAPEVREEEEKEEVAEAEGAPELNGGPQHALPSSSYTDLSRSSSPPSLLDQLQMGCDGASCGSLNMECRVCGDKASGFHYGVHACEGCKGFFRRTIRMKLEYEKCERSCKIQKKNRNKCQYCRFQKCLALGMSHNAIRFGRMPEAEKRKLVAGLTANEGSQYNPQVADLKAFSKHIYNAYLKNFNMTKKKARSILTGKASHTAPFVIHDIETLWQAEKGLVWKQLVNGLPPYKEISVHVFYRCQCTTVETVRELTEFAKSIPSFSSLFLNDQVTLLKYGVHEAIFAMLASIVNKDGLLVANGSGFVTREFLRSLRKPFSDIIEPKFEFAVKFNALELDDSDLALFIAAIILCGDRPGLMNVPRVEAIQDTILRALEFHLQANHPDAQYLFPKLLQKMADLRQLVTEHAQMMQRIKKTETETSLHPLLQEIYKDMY

[2] = target: T2, Peroxisome proliferator-activated receptor gamma (Homo sapiens) (UniProt P37231); experiment: Inhibition of PPARgamma (unknown origin) transfected in human HEK293 cells co-expressing CMV-beta galactosidase assessed as effect on beta-galactosidase activity at 50 uM after 48 hrs by luciferase reporter gene assay
T2 sequence (whole entry): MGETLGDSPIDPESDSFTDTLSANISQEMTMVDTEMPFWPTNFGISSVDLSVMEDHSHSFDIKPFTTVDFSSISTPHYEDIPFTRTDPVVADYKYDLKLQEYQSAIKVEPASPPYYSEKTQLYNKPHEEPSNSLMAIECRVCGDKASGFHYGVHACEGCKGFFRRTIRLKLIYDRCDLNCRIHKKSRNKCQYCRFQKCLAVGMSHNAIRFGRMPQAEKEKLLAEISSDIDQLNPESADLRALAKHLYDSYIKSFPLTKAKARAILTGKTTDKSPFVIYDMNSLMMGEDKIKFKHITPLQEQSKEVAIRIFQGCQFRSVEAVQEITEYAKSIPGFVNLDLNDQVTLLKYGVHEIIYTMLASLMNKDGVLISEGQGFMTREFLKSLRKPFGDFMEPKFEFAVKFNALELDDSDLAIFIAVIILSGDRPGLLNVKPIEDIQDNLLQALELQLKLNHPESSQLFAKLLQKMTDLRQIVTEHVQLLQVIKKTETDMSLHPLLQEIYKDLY

[3] = target: T3, Oxysterols receptor LXR-alpha (Homo sapiens) (UniProt Q13133); experiment: Inhibition of human LXRalpha transfected in human HEK293 cells co-expressing CMV-beta galactosidase assessed as inhibition on T0901317 response at 50 uM after 48 hrs by luciferase reporter gene assay
T3 sequence (whole entry): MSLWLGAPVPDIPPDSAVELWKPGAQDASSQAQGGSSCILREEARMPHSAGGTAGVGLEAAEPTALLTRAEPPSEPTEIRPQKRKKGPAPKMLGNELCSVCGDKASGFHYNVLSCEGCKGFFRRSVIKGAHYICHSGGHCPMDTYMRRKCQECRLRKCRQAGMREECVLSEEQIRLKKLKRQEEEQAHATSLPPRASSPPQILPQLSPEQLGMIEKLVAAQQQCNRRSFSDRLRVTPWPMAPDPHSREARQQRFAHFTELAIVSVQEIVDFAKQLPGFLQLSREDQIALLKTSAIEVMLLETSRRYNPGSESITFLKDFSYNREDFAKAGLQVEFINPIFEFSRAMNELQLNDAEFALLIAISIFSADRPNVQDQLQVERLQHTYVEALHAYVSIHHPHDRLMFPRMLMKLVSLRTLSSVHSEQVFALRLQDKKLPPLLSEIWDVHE

HEK293 = experiment: Cytotoxicity against human HEK293 cells
[4] = target: T4, Retinoic acid receptor alpha (Homo sapiens) (UniProt P10276); experiment: Inhibition of human RARalpha transfected in human HEK293 cells co-expressing CMV-beta galactosidase assessed as effect on beta-galactosidase activity at 50 uM after 48 hrs by luciferase reporter gene assay
T4 sequence (whole entry): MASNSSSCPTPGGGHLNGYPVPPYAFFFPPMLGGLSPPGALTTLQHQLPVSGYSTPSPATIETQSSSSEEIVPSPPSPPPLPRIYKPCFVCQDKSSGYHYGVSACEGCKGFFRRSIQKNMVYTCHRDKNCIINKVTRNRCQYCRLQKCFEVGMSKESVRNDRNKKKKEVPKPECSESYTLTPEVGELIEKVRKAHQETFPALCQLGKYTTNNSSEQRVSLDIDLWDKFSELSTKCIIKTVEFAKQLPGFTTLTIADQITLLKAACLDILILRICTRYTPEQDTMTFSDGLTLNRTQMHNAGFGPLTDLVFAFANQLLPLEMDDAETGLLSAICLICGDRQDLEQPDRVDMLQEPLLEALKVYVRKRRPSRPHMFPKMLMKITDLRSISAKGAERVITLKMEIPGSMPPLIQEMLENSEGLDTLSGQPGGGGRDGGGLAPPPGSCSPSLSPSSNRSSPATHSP

| inhibition [1] | inhibition [2] | inhibition [3] | inhibition [4] | SMILES | Activity (HEK293) |
| --- | --- | --- | --- | --- | --- |
| inactive | inactive | Active | inactive | C=C(CO)c1ccc([C@@H](C)C[C@@H](O)CO)c(C)c1 (relative stereo) | Non-Toxic |
| inactive | inactive |  | inactive | C=C(CO)[C@@]12O[C@@H]1[C@@]1(C)C(=CC2=O)C[C@H](O)C[C@@H]1C |  |
| inactive | inactive |  | inactive | C=C(CO)c1ccc2c(c1C)[C@@H](C)C[C@H](O)C2=O |  |
| inactive | inactive |  | inactive | C=C(CO)[C@@]12O[C@@H]1[C@@]1(C)C(=C[C@@H]2OC(C)=O)CC[C@@H](O)[C@@H]1C (relative stereo) |  |
| inactive | inactive |  | inactive | C=C(CO)[C@H]1C[C@@]2(C)C(=C[C@@H]1O)C[C@H](O)C[C@@H]2C |  |
| inactive | inactive | Active | inactive | C=C(CO)[C@H]1CC=C2CC[C@@H](O)[C@H](C)[C@@]2(C)C1 | Non-Toxic |
| inactive | inactive |  | inactive | C[C@H]1CC(=O)C=C2C=CC(=C(CO)CO)[C@H](O)[C@@]21C |  |
| inactive | inactive |  | inactive | C=C(CO)[C@]12O[C@H]1[C@]1(C)C(=C[C@H]2OC(C)=O)CCC[C@H]1C |  |
| inactive | inactive |  | inactive | C=C(CO)c1ccc([C@@H](O)[C@H](O)/C=C/C)c(C)c1 (relative stereo) |  |
| inactive | inactive |  | inactive | C=C(CO)[C@@]12O[C@@H]1[C@@]1(C)C(=C[C@@H]2O)[C@H](O)CC[C@@H]1C |  |
| inactive | inactive |  | inactive | C=C(CO)[C@@H]1CC=C2C[C@@H](O)[C@H](O)[C@@H](C)[C@]2(C)C1 (relative stereo) |  |
| inactive | inactive |  | inactive | C=C(CO)[C@@]12O[C@@H]1[C@@]1(C)C(=C[C@@H]2OC(C)=O)C=C[C@@H](O)[C@@H]1C |  |

| SMILES | inhibition [1] | inhibition [2] | inhibition [3] | inhibition [4] | Activity (HEK293) |
| --- | --- | --- | --- | --- | --- |
| C=C(CO)[C@@]12O[C@@H]1[C@@]1(C)C(=C[C@@H]2O)C=C[C@@H](O)[C@@H]1C | inactive | inactive |  | inactive |  |
